Assay: Coloring and deliquescence of compressed droxidopa/additive mixtures on preservation
Assay type: physicochemical
Protocol: Droxidopa and the following excipients were mixed at 1:1 in a mortar and the mixture was compressed at a pressure of 20 kgf/cm^2 using an oil hydraulic press (manufactured by RIKEN). The obtained tablets were preserved under the respective conditions of 60° C. […] The 60° C. 2 week preservation product was measured for the color difference from the initial stage preservation product using a spectral calorimeter (SE-2000: manufactured by Nippon Denshoku Industries Co., Ltd.).
Droxidopa and the following excipients were mixed at 4:1 in a mortar and the mixture was compressed at a pressure of 20 kgf/cm^2 using an oil hydraulic press (manufactured by RIKEN) .

60° C. × 2 W color difference (droxidopa:additive 1:1 compressed tablet, difference from initial stage product): 2.73
60° C. × 2 W color difference (droxidopa:additive 4:1 compressed tablet): 2.73
Structure (SMILES): N[C@H](C(=O)O)[C@H](O)c1ccc(O)c(O)c1 [droxidopa alone (without disintegrant), droxidopa]

Reference: US20090074861A1, “STABLE TABLET CONTAINING DROXIDOPA” (DAINIPPON SUMITOMO PHARMA CO., LTD., priority 2005, published 2009)
